From patent US20250120942A1, “BRAIN FUNCTION IMPROVING AGENT” (OSAKA UNIVERSITY, priority 2021, published 2025)

How the values were obtained:
[1] = system: scopolamine-induced amnesia mouse; assay: Y-maze test, short-term working memory of scopolamine-induced amnesia mouse (Test Example 2); format: in vivo, ddY mouse; conditions: for scopolamine-induced reduction in working memory (Spontaneous Alternation): FIG. 2(C)
Description: The effect of inhibiting lowering of short-term memory was examined by orally or subcutaneously (intraperitoneally) administering the compound A to the mouse.
7-weeks-old male ddY mice were purchased from Japan SLC, Inc. and subjected to the experiment after one week habituation period. The animals were reared in the rearing chamber provided with air conditioner (under the condition that the temperature was 22° C.±1° C., the relative humidity was 50±10%, and the irradiation time was 12 hours (8:00 to 20:00)). The feeding method was that the commercially available MF powdery feed (manufactured by Oriental Yeast Co., ltd.) and tap water were taken freely.
The compound A prepared according to the procedure described in Manufacturing Example 1 was dissolved in 2.5% DMSO solution in advance. There were 15 mice in each group, and the 30 mg/kg compound administration group and the 10 mg/kg compound administration group were established and orally administered. The mice of the control group and Vehicle group were orally administered with only 2.5% DMSO solution. In the same manner the compound B and the compound C were orally administered to 10 mice at a dose of 30 mg/kg respectively. Each mouse of the administration groups of the compound A to C and the vehicle group was intraperitoneally administered with scopolamine hydrobromide (manufactured by Sigma-Aldrich Japan S1875) (a dose of 1 mg/kg) which is muscarinic acetylcholine receptor antagonist 30 minutes after the administration. The mice of the control group which were not administered with scopolamine hydrobromide were intraperitoneally administered with (Japanese Pharmacopoeia) physiological saline solution (OTSUKA NORMAL SALINE 3311401A2026). At 30 minutes after the final administration, Y-maze test was conducted, and the working memory was evaluated. The test using the mice orally administered was separately conducted under the same condition as that described above for comparative evaluation of the intraperitoneal administration.
The Y-maze manufactured by Brain Science. idea Co., Ltd. was used for the test. The maze was the maze 3 courses of which were made into Y-letter shape having one selection point and arranged at interval of an angle of 120 degree. […] The mouse put on the gray course (made of polyvinyl chloride) was kept in the conditions and the mouse can see nothing but the upper part. Any one of the 3 courses of the maze was set as a starting point. After placing the mouse quietly at the starting point, the number of the times the mouse entered each course was record per 8 minutes, and as well as which course and in what order the mouse entered it. The ratio of the number of three consecutive entries into different courses (the number of the alternation behavior) to the total number of the selections was calculated as Spontaneous Alternation (%) according to the following formula and was used as an index of the short-term working memory.
From the results obtained, the mean (Mean) and the standard error (SEM) were calculated. The significant difference between the control group and the Vehicle group and between the compound A administration group and the Vehicle group was assessed by Turkey-Kramer's test. The level of significance was set to *P<0.05 and **p<0.01.

[2] = system: mouse reared in long-term isolation; assay: Forced swimming test in mouse reared in long-term isolation (Test Example 6); format: in vivo, ddY mouse; conditions: test 30 minutes after administration, 5 weeks isolation, FIG. 6
Description: The psychiatric disorder model mouse which was reared in isolation for 5 weeks was orally administered with the compound A and 30 minutes after the administration subjected to the Forced swimming test. The effect of improving depressive symptoms was examined.
The 3-weeks old male ddY mouse which was reared in isolation for 5 weeks in the same manner as in Test Example 3 was used for the test.
The compound A was dissolved in 2.5% DMSO solution in advance. After long-term isolated rearing the mice were divided into 3 groups of 7 mice and the administration groups of the compound A (the administration group of 30 mg/kg, the administration group of 10 mg/kg) and Vehicle group (the administration group of 2.5% DMSO solution) were set and the oral administration was carried out.
In 30 minutes after the oral administration, the forced swimming test was carried out in the same manner as in Test Example 5. The immobility time was measured during the test of 6 minutes and the depressive symptoms of the mouse was evaluated.
From the results obtained, the mean (Mean) and the standard error (SEM) were calculated. The significant difference was assessed between the compound A administration group and the Vehicle group by using Dunnett's test. The level of significance was set to *P<0.05. The vertical axis of the graph in FIG. 6 represents the immobility time during the test.

## O=C1CC[C@H](Cc2cc(O)cc(O)c2)O1 [compound A, (R)-5-(3,5-dihydroxyphenyl)-γ-valerolactone]
[1]; oral 30 mg/kg, scopolamine 1 mg/kg i.p., FIG. 2(A),(B)
  ameliorating the impairment of short-term working memory (Spontaneous Alternation): significant effect of inhibiting the lowering of short-term working memory
[1]; oral administration groups (10 mg/kg and 30 mg/kg), scopolamine 1 mg/kg i.p. 30 minutes later, FIG. 2(A)
  lowering of the short-term memory due to scopolamine (Spontaneous Alternation): inhibited
[1]; oral administration
  scopolamine-induced reduction in working memory (Spontaneous Alternation): inhibited scopolamine-induced reductions in working memory
[1]; subcutaneous administration
  scopolamine-induced reduction in working memory (Spontaneous Alternation): inhibited scopolamine-induced reductions in working memory
[2]; oral 10 mg/kg
  immobility time in forced swimming test versus vehicle group: significantly reduced
[2]; oral 30 mg/kg
  immobility time in forced swimming test versus vehicle group: significantly reduced
